Measurements as given in article PMC6687188, “Novel lactate dehydrogenase inhibitors with in vivo efficacy against Cryptosporidium parvum” (PLoS Pathogens, 2019).

Molecular target: recombinant CpLDH protein (Cryptosporidium parvum, UniProt Q9GT92, F198L/K295E/R251K)

Row | SMILES | MEAN CpLDH INHIBITION (%)
1 | O=C(Nc1ccc(Sc2ccc(N=Nc3c(O)c(S(=O)(=O)O)cc4cc(S(=O)(=O)O)ccc34)cc2)cc1)c1ccc(N=Nc2c(O)ccc3c(S(=O)(=O)O)cc(S(=O)(=O)O)cc23)cc1 [NSC76027] | -85.04%
2 | Cl.NCCSSCc1ccccc1CSSCCN [NSC624169] | -25.23%
3 | CCC[CH2][Sn]([CH2]CCC)([CH2]CCC)[O]c1cc(Cl)c(Cl)cc1Cl [NSC164914] | -26.61%
4 | C=C1C(=O)OC2CC1C(OC(C)=O)C/C(C)=C/CC/C(C)=C\CCC2(C)O (stereo not shown) [NSC36437] | -19.06%
5 | Cc1cc(O)c2c(c1)C(=O)c1cc(O)cc(O)c1C2=O [NSC408120] | -6.79%
6 | O=[N+]([O-])c1ccc(-c2cn(-c3ccc(Cl)cc3)cn2)cc1 [NSC610744] | -19.53%
7 | Cc1c2c(cc3c1[nH]c1ccccc13)C=NCC2 [NSC86100] | -9.40%
8 | C=C1C(=O)C23CC[C@@H]4C(C)(C(=O)OC)CCCC4(C)[C@@H]2CCC1(O)C3 (stereo partly shown) [NSC620358] | -24.86%
9 | CC1=NN(C(=O)c2ccncc2)C(=O)C1N=Nc1ccc(F)cc1 (stereo not shown) [NSC621094] | -33.52%
10 | CO[C@@H](/C(C)=C/C=C/C(C)=C/c1coc(C)n1)[C@@H](C)[C@@H]1C[C@H](O)[C@@]2(C)O[C@@H]2/C=C/[C@@H](C)[C@H]2C[C@H](CC(=O)O2)C[C@@H]2O[C@H]2C(=O)O1 [NSC332598] | -143.77%
11 | O=C(CC1(O)C(=O)Nc2c(Cl)ccc(Cl)c21)c1ccc(Cl)cc1Cl (stereo not shown) [NSC635436] | -79.39%
12 | CCN(CC)CCOC(=O)Cc1cccc2c(=O)cc(-c3ccccc3)oc12 [NSC293015] | -3.81%
13 | CC[C@@]1(O)C(=O)OCc2c1cc1n(c2=O)Cc2cc3c(N)cccc3nc2-1 [NSC629971] | -14.81%
14 | O=c1cnn(C2OC(CO)C(O)C2O)c(=S)[nH]1 (stereo not shown) [NSC146268] | -43.94%
15 | NC(=O)N/N=C1\CC2C3CC4C2C4C13 (stereo not shown) [NSC673912] | -116.36%
16 | Clc1ccc(-c2c(C3=NCCCN3)nnn2-c2ccc(Cl)cc2)cc1 [NSC645033] | -3.66%
17 | CC(=O)c1c(O)c(C)c(O)c2c1OC1=CC(=O)C(C(C)=O)C(=O)C12C (stereo not shown) [NSC5890] | -32.64%
18 | Cc1cc(N(C)C)ccc1N=Nc1ccc2ncccc2c1 [NSC680516] | -19.55%
19 | CCN1C=C/C(=C\C=C\c2cc[n+](CC)c3ccccc23)c2ccccc21.[I-] [NSC34391] | -25.08%
20 | Cc1ccc([S+](c2ccc(C)cc2)c2ccc(C)cc2)cc1 [NSC157930] | -72.47%
21 | O=C1C=Cc2ncccc2C1=O [NSC400944] | -2.52%

Row | SMILES | MEAN CpLDH INHIBITION (%)
22 | O=C1/C(=C\c2ccc(Cl)c(Cl)c2)CN(C(=O)CCN2CCOCC2)C/C1=C\c1ccc(Cl)c(Cl)c1 [NSC638646] | -17.60%
23 | C[n+]1cc2cc(O)c(O)cc2c2ccc3cc(O)c(O)cc3c21.Cl.[Cl-].c1ccncc1 [NSC184403] | -44.28%
24 | NC1N=C(c2ccc(Cl)cc2)C2=C(N1)c1ccccc1CC2 (stereo not shown) [NSC682864] | -37.11%
25 | CC(C)CCCCCCCCCCCCC(=O)NCC(=O)NC1C(C)OC(Nc2ncnc3nc[nH]c23)C(O)C1O (stereo not shown) [NSC268251] | -8.04%
26 | N#CC(C#N)=Cc1cccc(Oc2ccccc2)c1 [NSC643031] | -51.68%
27 | O=[N+]([O-])[O-].O=[N+]([O-])[O-].O=[N+]([O-])[O-].[Ga+3] [NSC15200] | -34.76%
28 | COC1=C(N)C(=O)c2nc(C)ccc2C1=O [NSC132493] | -117.70%
29 | CC(C)=CCC(OC(=O)C=C(C)C)C1=CC(=O)c2c(O)ccc(O)c2C1=O (stereo not shown) [NSC140377] | -8.72%
30 | BrCCC[P+](c1ccccc1)(c1ccccc1)c1ccccc1.[Br-] [NSC84074] | -40.93%
31 | Nc1nc(N)c2cc(Sc3cccc(C(F)(F)F)c3)ccc2n1 [NSC305782] | -11.03%
32 | CCCC(=O)OCC1OC(n2ccc(N)nc2=O)C(OC(=O)CCC)C1OC(=O)CCC (stereo not shown) [NSC138429] | -38.75%
33 | C[C@]12C=CC(=O)C=C1[C@@H](F)C[C@H]1[C@@H]3CC[C@](O)(C(=O)CO)[C@@]3(C)C[C@H](O)[C@@]12F [NSC77021] | -2.42%
34 | CC1(C)CC2=NO[Se]3=C2C(=NO3)C1 [NSC328587] | -53.59%
35 | N#CC(=S)Nc1ccc(F)cc1 [NSC369317] | -8.49%
36 | O=c1[nH]c2ccc(O)cc2o1 [NSC603719] | -2.52%
37 | CC(=O)[O-].Cc1c2cc[n+](CCN3CCCCC3)cc2c(C)c2c1[nH]c1ccc(O)cc12 [NSC311153] | -30.69%
38 | CC(=O)OCc1c2ccccc2c(C)c2c1cc(F)c1ccccc12 [NSC623135] | -28.47%
39 | CN(C)c1ccc(/C=C/C(=O)[O-])cc1.CN(C)c1ccc(/C=C/C(=O)[O-])cc1.[Cu+2] [NSC643351] | -4.10%
40 | Cc1cc(-c2nc3ccccc3s2)ccc1N [NSC674495] | -21.24%
41 | Nc1ccc(N)c2c1C(=O)c1ccccc1C2=O [NSC7833] | -11.00%
42 | CCCCS(=N)(=O)CCC(N)C(=O)O (stereo not shown) [NSC326231] | -24.75%

Row | SMILES | MEAN CpLDH INHIBITION (%)
43 | O=Nc1ccc(O)c2ncccc12 [NSC3852] | -37.64%
44 | O=[Se]([O-])[O-].[Na+].[Na+] [NSC347466] | -3.84%
45 | COc1cc(-c2cc(=O)c3c(OC)c(OC)c(OC)c(OC)c3o2)cc(OC)c1OC [NSC67580] | -41.90%
46 | Nc1nncs1 [NSC4728] | -23.83%
47 | N#CC(NCc1cccc(CNC(C#N)c2ccccc2)c1)c1ccccc1 (stereo not shown) [NSC681730] | -12.34%
48 | O=S(=O)(c1cccc(N=C=S)c1)c1cccc(N=C=S)c1 [NSC140911] | -0.44%
49 | Cl.NC1(CCNC(=O)c2ccccc2)CCN(C(=O)c2ccccc2)CC1 [NSC680509] | -41.56%
50 | COc1ccccc1Cc1nc(-c2ccccc2)nn(C2OC(COC(C)=O)C(OC(C)=O)C(OC(C)=O)C2OC(C)=O)c1=S (stereo not shown) [NSC625873] | -25.33%
51 | CC1=Nc2ccccc2/C1=C\c1c(C)[nH]c2ccccc12 [NSC76747] | -6.97%
52 | CCOC(=O)CCc1c(C)c2c(O)cc(O)cc2oc1=O [NSC622616] | -39.56%
53 | Br.CCN(CC)CC(C)(C)C(=O)/C=C/c1ccc(C)cc1 [NSC382766] | -40.98%
54 | BrC(/C=N/Nc1nnc(-c2ccccc2)c(-c2ccccc2)n1)C(Br)c1ccccc1 (stereo not shown) [NSC640638] | -14.60%
55 | C=C(CN(C)C)C(=O)c1ccccc1Cl.Cl [NSC382007] | -43.42%
56 | Nc1nc(-c2cccs2)cs1 [NSC54297] | -31.48%
57 | CC(C)(C)C1CCC2(CC1)CCN(CCCN1CCOCC1)CC2 [NSC90829] | -2.93%
58 | O=C1OC(c2ccco2)=N/C1=C\c1ccc(Cl)c(Cl)c1 [NSC202000] | -23.71%
59 | Cc1cc(O)c(C(C)C)cc1C1(c2cc(C(C)C)c(O)cc2C)OC(=O)c2ccccc21 [NSC2186] | -64.59%
60 | Br.CN(C)c1nc(=NCc2ccco2)ss1 [NSC622608] | -22.44%
61 | Cc1c(Cl)cccc1NC(=O)CC1Sc2ccccc2NC1=O (stereo not shown) [NSC634396] | -17.78%
62 | Cc1cc(N(CC(C)Br)CC(C)Br)ccc1N=Nc1ccccc1C(=O)O (stereo not shown) [NSC240419] | -69.26%
63 | CN1CCN(CCNc2ccc(CO)c3sc4ccccc4c(=O)c23)CC1 [NSC166381] | -6.81%

Row | SMILES | MEAN CpLDH INHIBITION (%)
64 | CN(C)CCCCN1CCc2c(n(C)c3ccccc23)C1=O.Cl [NSC658388] | -30.45%
65 | Cn1c(=O)c2nc3sc4c(n3c2n(C)c1=O)C(=O)c1ccccc1C4=O [NSC634568] | -8.97%
66 | CC(C)=CCC1=C(O)c2ccccc2C(=O)C1=O [NSC11905] | -39.26%
67 | Cl.Nc1ccc(OCCCc2c(-c3ccccc3)nc(N)[nH]c2=O)cc1 [NSC100856] | -59.57%
68 | Cc1ccc(Cl)c2c(N=Nc3ccccc3[N+](=O)[O-])c(O)[nH]c12 [NSC118735] | -15.17%
69 | CC(C)OP(=O)(OC(C)C)C(N(C)C)P(=O)(OC(C)C)OC(C)C.[Cl][Sn]([Cl])([Cl])[c]1ccccc1 [NSC645567] | -28.84%
70 | CCN(CC)CCOc1ccc(C(O)(Cc2ccc(OC)cc2)c2ccccc2)cc1 (stereo not shown) [NSC19857] | -57.96%
71 | Cc1ccc(NC(=O)/C=C/c2ccccc2)c(C)c1 [NSC191389] | -64.07%
72 | COc1cc2c(cc1O)N=CC1CCC(O)N1C2=O (stereo not shown) [NSC285223] | -56.39%
73 | CCN(CC)CCOc1ccccc1/C=C/c1noc2ccccc12.Cl [NSC601101] | -6.25%
74 | O=C1N[C@@H]2C(=C[C@H](O)[C@@H](O)[C@H]2O)c2cc3c(cc21)OCO3 [NSC349155] | -5.62%
75 | O=C(ON=C1c2ccccc2C(Br)C(Br)c2ccccc21)c1ccccc1 (stereo not shown) [NSC670140] | -63.78%
76 | COC1(O)C(=O)c2ccccc2OC1(OC)c1ccccc1 (stereo not shown) [NSC95848] | -17.43%
77 | c1ccc(-c2cccc(-c3ccccn3)n2)nc1 [NSC3905] | -48.97%
78 | OC(CBr)C(O)C(O)C(O)CBr (stereo not shown) [NSC616232] | -42.37%
79 | Cn1c(=O)[nH]c2nncnc2c1=O [NSC99733] | -38.11%
80 | O=C(N=Nc1c(O)[nH]c2c(Cl)cc(Cl)cc12)c1ccccc1O [NSC320864] | -26.08%
81 | COC(=O)NC1C(C)OC(OC2C/C=C(/C)C3C=CC4C(OC5CC(OC6CCC(OC7CC(O)C(OC8CCC(O)C(C)O8)C(C)O7)C(C)O6)C(OC(C)=O)C(C)O5)C(C)CC(C)C4C3(C)/C(O)=C3/C(=O)OC4(CC(C=O)=CC(O)C4/C=C\2C)C3=O)CC1(C)[N+](=O)[O-] (stereo not shown) [NSC333856] | -2.71%
82 | OCC1OC(n2cnc3c(=S)nc[nH]c32)C(O)C1O (stereo not shown) [NSC406021] | -17.89%
